In patent US10201533B2, “Substituted quinolizine derivatives useful as HIV integrase inhibitors” (priority 2013, dated 2019):
Where two headings read alike, the source gives them in different places.

System: HIV-1 (NL4-3 strain)
Assay: microbe, parasite or virus in culture
Assay type: cell-based
Details: MT4-GFP cells infected with HIV-1 NL4-3, IP or IC50 from 4-parameter dose response curve
[1] = 0% normal human serum (NHS), read-out: WILD TYPE CELL ASSAY Viking IP (0% NHS)
[2] = 100% normal human serum (NHS), read-out: WILD TYPE CELL ASSAY Viking IP (100% NHS)
[3] = Human immunodeficiency virus 1, NL43, 0% normal human serum (NHS), read-out: WILD TYPE CELL ASSAY Viking IP (0% NHS)
[4] = Human immunodeficiency virus 1, NL43, 100% normal human serum (NHS), read-out: WILD TYPE CELL ASSAY Viking IP (100% NHS)

| Compound | IC50 [1] | IC50 [2] | IC50 [3] | IC50 [4] |
| --- | --- | --- | --- | --- |
| COCCC[C@@]1(C)C(=O)c2c(O)c(=O)c(C(=O)NCc3ccc(F)cc3F)cn2C[C@@H]1OC [Compound 77] | 1.2 nM | 60 nM |  |  |
| C[C@]12CC=CCO[C@@H]1Cn1cc(C(=O)NCc3ccc(F)cc3F)c(=O)c(O)c1C2=O [Compound 50] | 1.6 nM | 293 nM |  |  |
| COCC[C@@]1(C)C(=O)c2c(O)c(=O)c(C(=O)NCc3ccccc3F)cn2C[C@@H]1OC [Compound 67] | 1.7 nM | 154 nM |  |  |
| C[C@]12CCCN[C@H]1Cn1cc(C(=O)NCc3ccc(F)cc3F)c(=O)c(O)c1C2=O [Compound 121] |  |  | 2.6 nM | 62 nM |
| C[C@@]12CCCO[C@@H]1Cn1cc(C(=O)NCc3c(F)cc(F)cc3F)c(=O)c(O)c1C2=O (single isomer, unassigned) [Compound 14] |  |  | 0.7 nM | 26 nM |
| COC12CCCC1(C)C(=O)c1c(O)c(=O)c(C(=O)NCc3ccc(F)cc3F)cn1C2 (centres unmarked) [Compound 105] |  |  | 3.5 nM | 2290 nM |
| COC1(C)CCn2cc(C(=O)NCc3ccc(F)cc3F)c(=O)c(O)c2C1=O (centres unmarked) [Compound 51] |  | 2200 nM | 3.6 nM |  |
| COCO[C@@]12CCCC[C@]1(C)C(=O)c1c(O)c(=O)c(C(=O)NCc3ccc(F)cc3F)cn1C2 [Compound 110] |  |  | 2.1 nM | 140 nM |
| COCCC[C@@]1(C)C(=O)c2c(O)c(=O)c(C(=O)NCc3c(F)cccc3F)cn2C[C@@H]1OC [Compound 84] |  |  | 1.8 nM | 31 nM |
| Cc1nc(CNC(=O)c2cn3c(c(O)c2=O)C(=O)[C@@]2(C)CCCO[C@H]2C3)sc1C [Compound 31] |  |  | 48 nM | > 8400 nM |
| C[C@]12CCCCO[C@@H]1Cn1cc(C(=O)NCc3ccc(F)cc3F)c(=O)c(O)c1C2=O (single isomer, unassigned) [Compound 43] |  | 2000 nM | 3.2 nM |  |
| COC1(C)CCn2cc(C(=O)NCc3ccc(F)cc3F)c(=O)c(O)c2C1=O (centres unmarked) [Compound 52] | 3.4 nM | > 8400 nM |  |  |
| COCCC[C@]1(C)C(=O)c2c(O)c(=O)c(C(=O)NCc3ccccc3F)cn2C[C@@H]1OC [Compound 86] | 1.3 nM | 18 nM |  |  |
| C[C@@]12COCO[C@H]1Cn1cc(C(=O)NCc3ccc(F)cc3F)c(=O)c(O)c1C2=O [Compound 12] | 2.6 nM | 595 nM |  |  |
| C[C@@]12CCCO[C@@H]1Cn1cc(C(=O)NCc3ccc(F)c(F)c3F)c(=O)c(O)c1C2=O (single isomer, unassigned) [Compound 17] |  |  | 2.9 nM | 117 nM |
| C[C@]12CCCO[C@H]1Cn1cc(C(=O)NCc3cccc(Cl)c3F)c(=O)c(O)c1C2=O (single isomer, unassigned) [Compound 26] |  |  | 1.1 nM | 2550 nM |
| COCC[C@]1(C)C(=O)c2c(O)c(=O)c(C(=O)NCc3cccc(Cl)c3F)cn2C[C@@H]1OC [Compound 64] |  | 2960 nM | 0.9 nM |  |
| C[C@]12CCCO[C@H]1Cn1cc(C(=O)NCc3c(F)cc(F)cc3F)c(=O)c(O)c1C2=O (single isomer, unassigned) [Compound 23] |  |  | 1.5 nM | 1260 nM |
| C[C@]12CCCO[C@H]1Cn1cc(C(=O)NCc3ccc(F)c(Br)c3)c(=O)c(O)c1C2=O (single isomer, unassigned) [Compound 25] |  |  | 4.2 nM | > 8400 nM |

| Compound | IC50 [1] | IC50 [2] | IC50 [3] | IC50 [4] |
| --- | --- | --- | --- | --- |
| C[C@]12CCCO[C@H]1Cn1cc(C(=O)NCc3ccc(F)cc3)c(=O)c(O)c1C2=O (single isomer, unassigned) [Compound 19] |  |  | 4.6 nM | 709 nM |
| C[C@]12CCCCO[C@@H]1Cn1cc(C(=O)NCc3cccc(Cl)c3F)c(=O)c(O)c1C2=O (single isomer, unassigned) [Compound 45] |  | 4750 nM | 2.3 nM |  |
| C[C@@]12CCCCO[C@@H]1Cn1cc(C(=O)NCc3c(F)cc(F)cc3F)c(=O)c(O)c1C2=O (single isomer, unassigned) [Compound 42] | 2.1 nM | 517 nM |  |  |
| COCCC[C@]1(C)C(=O)c2c(O)c(=O)c(C(=O)NCc3ccccc3F)cn2C[C@@H]1OC [Compound 87] | 8 nM | 269 nM |  |  |
| COCCC[C@@]1(C)C(=O)c2c(O)c(=O)c(C(=O)NCc3ccc(F)cc3F)cn2C[C@@H]1OC [Compound 76] |  |  | 0.9 nM | 35 nM |
| CO[C@]12CCCCC[C@@]1(C)C(=O)c1c(O)c(=O)c(C(=O)NCc3ccc(F)cc3F)cn1C2 [Compound 119] |  |  | 2.1 nM | 2060 nM |
| COCCC[C@]1(C)C(=O)c2c(O)c(=O)c(C(=O)NCc3cccc(Cl)c3F)cn2C[C@@H]1OC [Compound 79] | 1 nM | 662 nM |  |  |
| C[C@]12CCCC[C@@]1(O)Cn1cc(C(=O)NCc3ccc(F)c(Cl)c3)c(=O)c(O)c1C2=O [Compound 97] |  |  | 2.4 nM | 151 nM |
| COCCC[C@]1(C)C(=O)c2c(O)c(=O)c(C(=O)NCc3ccc(F)cc3F)cn2C[C@@H]1OC [Compound 74] | 4 nM | 262 nM |  |  |
| COc1c2n(cc(-c3nnc(Cc4ccc(F)cc4F)s3)c1=O)CC(OC)C(C)(C)C2=O (centres unmarked) [Compound 6] | 10 nM |  |  |  |
| C[C@]12CCCO[C@@H]1Cn1cc(C(=O)NCc3ccc(F)cc3F)c(=O)c(O)c1C2=O (racemic) [Compound 9] |  |  | 2.6 nM | 235 nM |
| C[C@@]12CCCC[C@]1(O)Cn1cc(C(=O)NCc3ccc(F)cc3F)c(=O)c(O)c1C2=O [Compound 94] |  |  | 1.8 nM | 282 nM |
| COCCC[C@]1(C)C(=O)c2c(O)c(=O)c(C(=O)NCc3cccc(Cl)c3F)cn2C[C@@H]1OC [Compound 78] |  | 15 nM | 0.8 nM |  |
| COCCC[C@@]1(C)C(=O)c2c(O)c(=O)c(C(=O)NCc3cccc(Cl)c3F)cn2C[C@@H]1OC [Compound 80] |  | 101 nM | 1.1 nM |  |
| CC[C@]12CCCO[C@@H]1Cn1cc(C(=O)NCc3ccc(F)cc3F)c(=O)c(O)c1C2=O [Compound 120] |  |  | 0.8 nM | 116 nM |
| O=C(NCc1ccc(F)cc1F)c1cn2c(c(O)c1=O)C(=O)C1CCOC1C2 (centres unmarked) [Compound 10] |  |  | 66 nM |  |
| CC1(C)CCC[C@@]2(C)C(=O)c3c(O)c(=O)c(C(=O)NCc4ccc(F)cc4F)cn3C[C@@]12O [Compound 109] |  |  | 3.2 nM | 714 nM |
| C[C@@]12CCCO[C@@H]1Cn1cc(C(=O)NCc3ccc(F)c(Cl)c3)c(=O)c(O)c1C2=O (single isomer, unassigned) [Compound 16] |  |  | 4.1 nM | 257 nM |
| COCCCO[C@@]12CCCC[C@]1(C)C(=O)c1c(O)c(=O)c(C(=O)NCc3ccc(F)cc3F)cn1C2 [Compound 116] |  |  | 2.3 nM | 256 nM |

| Compound | IC50 [1] | IC50 [2] | IC50 [3] | IC50 [4] |
| --- | --- | --- | --- | --- |
| C[C@@]12CCCCC[C@@]1(O)Cn1cc(C(=O)NCc3ccc(F)cc3F)c(=O)c(O)c1C2=O [Compound 99] |  |  | 3.7 nM | 616 nM |
| COCC[C@]1(C)C(=O)c2c(O)c(=O)c(C(=O)NCc3ccccc3F)cn2C[C@@H]1OC [Compound 69] | 1.2 nM | 24 nM |  |  |
| CC1(C)C(=O)c2c(O)c(=O)c(C(=O)NCc3ccc(F)cc3F)cn2CC1O (centres unmarked) [Compound 4] |  |  | 74 nM | 1850 nM |
| COC[C@]1(C)C(=O)c2c(O)c(=O)c(C(=O)NCc3ccc(F)cc3F)cn2C[C@@H]1OC [Compound 54] | 1.8 nM | 55 nM |  |  |
| C[C@@]12CC=CCO[C@@H]1Cn1cc(C(=O)NCc3ccc(F)cc3F)c(=O)c(O)c1C2=O [Compound 47] |  | 70 nM | 1.3 nM |  |
| Cc1cc(CNC(=O)c2cn3c(c(O)c2=O)C(=O)[C@@]2(C)CCCO[C@H]2C3)ccc1F (single isomer, unassigned) [Compound 24] |  |  | 4.3 nM | > 8400 nM |
| C[C@]12CCCO[C@H]1Cn1cc(C(=O)NCc3ccc(F)cc3F)c(=O)c(O)c1C2=O [Compound 8] | 1.8 nM | 500 nM |  |  |
| COC12CCCC1(C)C(=O)c1c(O)c(=O)c(C(=O)NCc3ccc(F)c(F)c3F)cn1C2 (centres unmarked) [Compound 107] |  |  | 5.7 nM | 4930 nM |
| COCCC[C@@]1(C)C(=O)c2c(O)c(=O)c(C(=O)NCc3ccccc3F)cn2C[C@@H]1OC [Compound 88] |  |  | 2.3 nM | 63 nM |
| C[C@@]12CCCCO[C@@H]1Cn1cc(C(=O)NCc3c(F)cc(F)cc3F)c(=O)c(O)c1C2=O (single isomer, unassigned) [Compound 41] |  | 34 nM | 2 nM |  |
| C[C@@]12CC=CCO[C@@H]1Cn1cc(C(=O)NCc3ccc(F)cc3F)c(=O)c(O)c1C2=O [Compound 48] | 1.7 nM | 913 nM |  |  |
| CC12CCCC1(O)Cn1cc(C(=O)NCc3ccc(F)cc3F)c(=O)c(O)c1C2=O (centres unmarked) [Compound 104] |  |  | 3.6 nM | 343 nM |
| COCO[C@]12CCCC[C@@]1(C)C(=O)c1c(O)c(=O)c(C(=O)NCc3ccc(F)cc3F)cn1C2 [Compound 111] |  |  | 3 nM | 858 nM |
| COc1ncc(CNC(=O)c2cn3c(c(O)c2=O)C(=O)[C@@]2(C)CCCO[C@H]2C3)cc1Cl (single isomer, unassigned) [Compound 32] |  |  | 8.2 nM | > 8400 nM |
| COCC[C@@]1(C)C(=O)c2c(O)c(=O)c(C(=O)NCc3c(F)cccc3F)cn2C[C@@H]1OC [Compound 71] | 2.2 nM | 89 nM |  |  |
| COCCC[C@]1(C)C(=O)c2c(O)c(=O)c(C(=O)NCc3c(F)cc(F)cc3F)cn2C[C@@H]1OC [Compound 91] | 3.8 nM | 273 nM |  |  |
| COCC[C@@]1(C)C(=O)c2c(O)c(=O)c(C(=O)NCc3cccc(Cl)c3F)cn2C[C@@H]1OC [Compound 62] |  |  | 0.9 nM | 481 nM |
| COCCC[C@]1(C)C(=O)c2c(O)c(=O)c(C(=O)NCc3c(F)cccc3F)cn2C[C@@H]1OC [Compound 82] | 4.1 nM | 160 nM |  |  |
